From patent publication US20230293407A1, “Compositions Comprising (Bio)-Alkanediols with Antimicrobials for Product Protection” (Symrise AG, priority 2020, published 2023) come the findings set out here.

Read-outs that look alike come from different tables or passages of the source.

Some test systems named below: Pseudomonas aeruginosa; Staphylococcus aureus; Escherichia coli; Candida albicans; Aspergillus brasiliensis.
What all share (experiment): preservation efficacy test (PET), European Pharmacopoeia 5.1.3
Holding throughout (format): cell-based

Where [1] appears, read: PA, 2 days after inoculation, use concentration in label.
Setting [2] is: PA, 7 days after inoculation, use concentration in label.
The mark [3] stands for this setting: PA, 14 days after inoculation, use concentration in label.
The mark [4] stands for this setting: PA, 28 days after inoculation, use concentration in label.
[5] abbreviates: SA, 7 days after inoculation, use concentration in label.
The mark [6] stands for this setting: SA, 14 days after inoculation, use concentration in label.
[7] abbreviates: SA, 28 days after inoculation, use concentration in label.
The mark [8] stands for this setting: EC, 2 days after inoculation, use concentration in label.
The mark [9] stands for this setting: EC, 7 days after inoculation, use concentration in label.
The mark [10] stands for this setting: EC, 14 days after inoculation, use concentration in label.
[11] abbreviates: EC, 28 days after inoculation, use concentration in label.
[12] abbreviates: CA, 2 days after inoculation, use concentration in label.
Where [13] appears, read: CA, 7 days after inoculation, use concentration in label.
Setting [14] is: CA, 14 days after inoculation, use concentration in label.
The mark [15] stands for this setting: CA, 28 days after inoculation, use concentration in label.
Setting [16] is: AB, 2 days after inoculation, use concentration in label.
Setting [17] is: AB, 7 days after inoculation, use concentration in label.
The mark [18] stands for this setting: AB, 14 days after inoculation, use concentration in label.
The mark [19] stands for this setting: AB, 28 days after inoculation, use concentration in label.
[20] abbreviates: SA, 2 days after inoculation, use concentration in label.
Where [21] appears, read: 2 days after inoculation, substance at given % in test formulation.
Where [22] appears, read: 7 days after inoculation, substance at given % in test formulation.
The mark [23] stands for this setting: 14 days after inoculation, substance at given % in test formulation.
[24] abbreviates: 28 days after inoculation, substance at given % in test formulation.

On to `Cc1ccc(C(C)C)c(O)c1` [0.1% Thymol], for which the “count at 2 days” value is listed as 1 in the assay on Pseudomonas aeruginosa (setting [1]), 720.000 in the assay on Escherichia coli (setting [8]), 69.000 in the assay with Candida albicans (setting [12]) and 580.000 with Aspergillus brasiliensis (setting [16]). For the same compound, the “count at 7 days” value in the assay with Pseudomonas aeruginosa (setting [2]) is listed as 1; in the assay on Staphylococcus aureus (setting [5]), 23.000; with Escherichia coli (setting [9]) it was 200.000; with Candida albicans (setting [13]) it was 640.000; with Aspergillus brasiliensis (setting [17]), 520.000. The “count at 14 days” value is recorded as 1 in the assay on Pseudomonas aeruginosa (setting [3]); 120 in the assay on Staphylococcus aureus (setting [6]); 200 in the assay on Escherichia coli (setting [10]); 180 in the assay with Candida albicans (setting [14]); 290.000 in the assay with Aspergillus brasiliensis (setting [18]). Further, the “count at 28 days” value was determined as 1 with Pseudomonas aeruginosa (setting [4]); 1 in the assay on Staphylococcus aureus (setting [7]); 27 with Escherichia coli (setting [11]); 1.400 in the assay on Candida albicans (setting [15]); 650.000 in the assay with Aspergillus brasiliensis (setting [19]).

As for `CCCCCCCC(=O)NO` [0.4% caprylhydroxamic acid], the “count at 2 days” value was 1 with Pseudomonas aeruginosa (setting [1]); 1 with Staphylococcus aureus (setting [20]); 6.900 with Escherichia coli (setting [8]); 210.000 in the assay on Candida albicans (setting [12]); 810.000 in the assay with Aspergillus brasiliensis (setting [16]). For the same compound, the “count at 7 days” value was 1 in the assay with Pseudomonas aeruginosa (setting [2]); 1 with Staphylococcus aureus (setting [5]); 1 in the assay with Escherichia coli (setting [9]); 1 in the assay with Candida albicans (setting [13]); 68.000 in the assay on Aspergillus brasiliensis (setting [17]). Besides, the “count at 14 days” value in the assay on Pseudomonas aeruginosa (setting [3]) amounted to 1; in the assay on Staphylococcus aureus (setting [6]), 1; in the assay on Escherichia coli (setting [10]) it was 1; with Candida albicans (setting [14]), 1; with Aspergillus brasiliensis (setting [18]), 180. The “count at 28 days” value with Pseudomonas aeruginosa (setting [4]), in the assay with Staphylococcus aureus (setting [7]), with Escherichia coli (setting [11]), in the assay with Candida albicans (setting [15]) and in the assay with Aspergillus brasiliensis (setting [19]) was 1 throughout.

For the compound `O=C([O-])c1ccccc1.[Na+]` [0.2% Sodium Benzoate], the “count at 2 days” value with Pseudomonas aeruginosa came out at 1; with Staphylococcus aureus, 320.000; in the assay with Escherichia coli, 130.000; in the assay on Aspergillus brasiliensis, 760.000. Further, the “count at 7 days” value was 1 in the assay on Pseudomonas aeruginosa; 74.000 in the assay on Staphylococcus aureus; 11.000 in the assay on Escherichia coli; 250.000 in the assay with Candida albicans; 880.000 in the assay on Aspergillus brasiliensis. In addition, the “count at 14 days” value turned out to be 1 with Pseudomonas aeruginosa, 1 in the assay on Staphylococcus aureus, 1 in the assay with Escherichia coli and 200.000 with Aspergillus brasiliensis. The “count at 28 days” value in the assay with Pseudomonas aeruginosa is given as 1; in the assay with Staphylococcus aureus, 1; with Escherichia coli it was 1; with Candida albicans, 1; in the assay with Aspergillus brasiliensis, 230.000.

Take `O=C([O-])CN(CCN(CC(=O)O)CC(=O)O)CC(=O)[O-].[Na+].[Na+]` [0.2 % Disodium EDTA]: the “count at 2 days” value came out at 1 in the assay on Pseudomonas aeruginosa (setting [1]), 530.000 in the assay with Staphylococcus aureus (setting [20]), 330.000 in the assay with Escherichia coli (setting [8]) and 990.000 in the assay on Aspergillus brasiliensis (setting [16]). Moreover, the “count at 7 days” value in the assay with Pseudomonas aeruginosa (setting [2]) amounted to 1; in the assay with Staphylococcus aureus (setting [5]), 49.000; in the assay on Escherichia coli (setting [9]) it was 85.000; in the assay on Aspergillus brasiliensis (setting [17]) it was 590.000. In addition, the “count at 14 days” value in the assay on Pseudomonas aeruginosa (setting [3]) turned out to be 1; in the assay with Staphylococcus aureus (setting [6]) it was 49.000; with Escherichia coli (setting [10]) it was 85.000; in the assay on Aspergillus brasiliensis (setting [18]) it was 590.000. Further, the “count at 28 days” value in the assay with Pseudomonas aeruginosa (setting [4]) came to 1; in the assay with Staphylococcus aureus (setting [7]), 2.500; in the assay with Escherichia coli (setting [11]) it was 1.800; with Candida albicans (setting [15]) it was 810.000; in the assay with Aspergillus brasiliensis (setting [19]) it was 330.000.

On to `CC(=O)CCc1ccc(OCCO)cc1` [0.4% Hydroxyethoxyphenyl Butanone], for which the “count at 2 days” value in the assay with Pseudomonas aeruginosa (setting [1]) amounted to 1; in the assay on Staphylococcus aureus (setting [20]), 39.000; in the assay with Escherichia coli (setting [8]), 200; in the assay on Candida albicans (setting [12]) it was 95.000. Moreover, the “count at 7 days” value in the assay on Pseudomonas aeruginosa (setting [2]), in the assay on Staphylococcus aureus (setting [5]), with Escherichia coli (setting [9]) and in the assay on Candida albicans (setting [13]) was 1 each time. Further, the “count at 14 days” value with Pseudomonas aeruginosa (setting [3]) was 1; in the assay with Staphylococcus aureus (setting [6]), 1; in the assay on Escherichia coli (setting [10]), 1; in the assay on Candida albicans (setting [14]) it was 490. The “count at 28 days” value is 1 in the assay on Pseudomonas aeruginosa (setting [4]); 1 in the assay with Staphylococcus aureus (setting [7]); 1 in the assay with Escherichia coli (setting [11]); 450 in the assay with Candida albicans (setting [15]); 810.000 in the assay on Aspergillus brasiliensis (setting [19]).

As for `OCCCO` [0.8% 1,3-propanediol], the “count at 2 days” value in the assay with Pseudomonas aeruginosa (setting [1]) was 290; with Staphylococcus aureus (setting [20]), 180.000; with Escherichia coli (setting [8]) it was 350.000; in the assay on Aspergillus brasiliensis (setting [16]), 900.000. Also, the “count at 7 days” value turned out to be 200 in the assay with Pseudomonas aeruginosa (setting [2]); 58.000 in the assay with Staphylococcus aureus (setting [5]); 74.000 in the assay with Escherichia coli (setting [9]); 650.000 in the assay on Candida albicans (setting [13]); 650.000 with Aspergillus brasiliensis (setting [17]). In addition, the “count at 14 days” value is 180 in the assay with Pseudomonas aeruginosa (setting [3]); 820 in the assay on Staphylococcus aureus (setting [6]); 4.100 in the assay on Escherichia coli (setting [10]); 630.000 in the assay on Candida albicans (setting [14]); 270.000 with Aspergillus brasiliensis (setting [18]). The “count at 28 days” value with Pseudomonas aeruginosa (setting [4]) stood at 1; in the assay on Staphylococcus aureus (setting [7]) it was 1; in the assay with Escherichia coli (setting [11]), 1; with Candida albicans (setting [15]) it was 1; with Aspergillus brasiliensis (setting [19]), 380.

As to `COc1ccc(C(=O)O)cc1` [anisic acid, reference compound], the “number of microorganisms, 2 days” value in the assay with Pseudomonas aeruginosa (PET, Pseudomonas aeruginosa (PA), 2 days after inoculation) is listed as 1; in the assay with Staphylococcus aureus (PET, Staphylococcus aureus (SA), 2 days after inoculation) it was 1; in the assay on Escherichia coli (PET, Escherichia coli (EC), 2 days after inoculation), 1; with Candida albicans (PET, Candida albicans (CA), 2 days after inoculation), 7.000; in the assay with Aspergillus brasiliensis (PET, Aspergillus brasiliensis (AB), 2 days after inoculation), 650.000. Further, the “number of microorganisms, 7 days” value in the assay with Pseudomonas aeruginosa (PET, Pseudomonas aeruginosa (PA), 7 days after inoculation) stood at 1; with Staphylococcus aureus (PET, Staphylococcus aureus (SA), 7 days after inoculation), 1; in the assay on Escherichia coli (PET, Escherichia coli (EC), 7 days after inoculation) it was 1; with Candida albicans (PET, Candida albicans (CA), 7 days after inoculation), 9.000; in the assay on Aspergillus brasiliensis (PET, Aspergillus brasiliensis (AB), 7 days after inoculation), 360.000. Also, the “number of microorganisms, 14 days” value is recorded as 1 in the assay with Pseudomonas aeruginosa (PET, Pseudomonas aeruginosa (PA), 14 days after inoculation); 1 in the assay with Staphylococcus aureus (PET, Staphylococcus aureus (SA), 14 days after inoculation); 1 with Escherichia coli (PET, Escherichia coli (EC), 14 days after inoculation); 1 with Candida albicans (PET, Candida albicans (CA), 14 days after inoculation); 1 in the assay with Aspergillus brasiliensis (PET, Aspergillus brasiliensis (AB), 14 days after inoculation). The “number of microorganisms, 28 days” value was determined as 1 with Pseudomonas aeruginosa (PET, Pseudomonas aeruginosa (PA), 28 days after inoculation); 1 in the assay on Staphylococcus aureus (PET, Staphylococcus aureus (SA), 28 days after inoculation); 1 in the assay with Escherichia coli (PET, Escherichia coli (EC), 28 days after inoculation); 1 in the assay on Candida albicans (PET, Candida albicans (CA), 28 days after inoculation); 1 with Aspergillus brasiliensis (PET, Aspergillus brasiliensis (AB), 28 days after inoculation).

For the compound `CCCCCC(O)CO` (stereo not shown) [0.2 % 1,2-heptanediol], the “count at 2 days” value in the assay with Pseudomonas aeruginosa (setting [1]) amounted to 1; with Staphylococcus aureus (setting [20]), 84.000; in the assay with Escherichia coli (setting [8]), 53.000; in the assay on Aspergillus brasiliensis (setting [16]), 790.000. Also, the “count at 7 days” value in the assay with Pseudomonas aeruginosa (setting [2]) was found to be 1; with Staphylococcus aureus (setting [5]), 2.300; with Escherichia coli (setting [9]) it was 1.100; with Aspergillus brasiliensis (setting [17]), 630.000. The “count at 14 days” value in the assay with Pseudomonas aeruginosa (setting [3]) worked out at 1; in the assay on Staphylococcus aureus (setting [6]), 1; in the assay on Escherichia coli (setting [10]), 1; with Aspergillus brasiliensis (setting [18]) it was 230.000. Also, the “count at 28 days” value is on record as 1 with Pseudomonas aeruginosa (setting [4]); 1 with Staphylococcus aureus (setting [7]); 1 in the assay on Escherichia coli (setting [11]); 420.000 in the assay on Candida albicans (setting [15]); 220.000 in the assay with Aspergillus brasiliensis (setting [19]).

As for `COC(=O)c1ccc(O)cc1` [0.1% Methylparaben], the “PA germ count, 2 days” value in the assay on Pseudomonas aeruginosa (setting [21]) was 1. In the assay with Pseudomonas aeruginosa (setting [22]), the “PA germ count, 7 days” value was found to be 1. Moreover, the “PA germ count, 14 days” value in the assay with Pseudomonas aeruginosa (setting [23]) is recorded as 1. For the same compound, the “PA germ count, 28 days” value in the assay on Pseudomonas aeruginosa (setting [24]) is 1. Also, the “SA germ count, 7 days” value in the assay with Staphylococcus aureus (setting [22]) was 6.100. For the same compound, the “SA germ count, 14 days” value with Staphylococcus aureus (setting [23]) turned out to be 140. In the assay on Staphylococcus aureus (setting [24]), the “SA germ count, 28 days” value came out at 1. The “EC germ count, 2 days” value in the assay with Escherichia coli (setting [21]) came out at 680.000. The “EC germ count, 7 days” value in the assay on Escherichia coli (setting [22]) stood at 18.000. Moreover, the “EC germ count, 14 days” value in the assay with Escherichia coli (setting [23]) came to 45. For the same compound, the “EC germ count, 28 days” value in the assay with Escherichia coli (setting [24]) came to 1. Moreover, in the assay with Candida albicans (setting [21]), the “CA germ count, 2 days” value came to 100.000. Besides, the “CA germ count, 7 days” value in the assay on Candida albicans (setting [22]) came to 210.000. The “CA germ count, 14 days” value in the assay on Candida albicans (setting [23]) is given as 85.000. In the assay with Candida albicans (setting [24]), the “CA germ count, 28 days” value worked out at 11.000. Besides, the “AB germ count, 2 days” value in the assay on Aspergillus brasiliensis (setting [21]) turned out to be 300.000. The “AB germ count, 7 days” value with Aspergillus brasiliensis (setting [22]) came to 690.000. Moreover, the “AB germ count, 14 days” value in the assay with Aspergillus brasiliensis (setting [23]) stood at 300.000. Also, in the assay with Aspergillus brasiliensis (setting [24]), the “AB germ count, 28 days” value was 240.000.
